Test results as given in publication PMC10956426, “Lipid-Binding Regions within PKC-Related Serine/Threonine Protein Kinase N1 (PKN1) Required for Its Regulation” (Biochemistry, 2024).

Molecular target: T1, PKN1-(C2), PKN1-(C2)-(342–605) (Rattus norvegicus, UniProt Q63433)
T1 construct: predominantly trimer
Assay: intrinsic tryptophan fluorescence quenching, Scatchard
Type: binding
Settings: 3 lipids per trimer, 20 mM phosphate pH 7.4, 25 mM NaCl, 25 °C, sonicated vesicles
From the text: intrinsic tryptophan fluorescence quenching, Scatchard on PKN1-(C2), PKN1-(C2)-(342–605)

[1] = type I (high-affinity) site of a biphasic curve

T1 sequence (Q63433 342-605): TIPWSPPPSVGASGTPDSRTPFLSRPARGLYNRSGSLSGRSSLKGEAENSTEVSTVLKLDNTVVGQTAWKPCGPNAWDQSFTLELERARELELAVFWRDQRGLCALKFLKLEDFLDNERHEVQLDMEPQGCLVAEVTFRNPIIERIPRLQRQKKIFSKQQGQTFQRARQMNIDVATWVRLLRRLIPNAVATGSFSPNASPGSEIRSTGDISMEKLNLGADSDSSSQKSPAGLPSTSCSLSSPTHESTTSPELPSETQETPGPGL

Kd [1]	Kd (one class of sites)	Substance
300 nM	–	phosphatidic acid
–	200 nM	phosphatidylserine
1000 ± 600 nM	–	cardiolipin
–	100 nM	phosphatidylcholine
